Assay in all cases: DTP human tumour cell line panel, 48 h
In assay [1] the test system is RPMI-8226 leukemia.
For assay [2], the system named is K-562 leukemia.
Assay [3] relates to UO-31 renal.
Assay [4] deals with CCRF-CEM leukemia.
Assay [5] relates to MDA-MB-231 breast.
Assay [6] relates to OVCAR-5 ovarian.
Assay [7] has as its system LOX IMVI melanoma.
The subject of assay [8] is SW-620 colon.
Assay [9] relates to HL-60(TB) leukemia.
The test system of assay [10] is HT29 colon.

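Values below derive from 48-hour exposures of cells grown in 96-well plates, with endpoints linearly interpolated between the two concentrations bracketing the appropriate inhibition level. GI50 is the concentration that inhibits growth by half. TGI: total growth inhibition.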

In the case of `COc1ccc(C2C3=C(COC3=O)Oc3cc4c(cc32)OCO4)c(OC)c1` (configuration not stated), the TGI in assay [1] is greater than 100 µM; in assay [2] it was 87.3 µM; in [3] it was greater than 100 µM; in [4], greater than 100 µM; in assay [5], greater than 100 µM; in assay [6], greater than 100 µM. The TGI in assay [7] is greater than 100 µM; in assay [8], greater than 100 µM; in [9], 39.9 µM; in assay [10], greater than 100 µM.

With `Cn1c(=O)c2c(nc3n(Cc4ccccc4)c(=O)c(NCCCBr)cn23)n(C)c1=O`, the TGI in assay [1], in assay [2], in [3], in assay [4], in assay [5] and in assay [6] was greater than 100 µM throughout. In addition, the TGI in [7], in assay [8], in assay [9] and in assay [10] was greater than 100 µM throughout.

Turning to `COc1ccccc1C1Nn2c(nc3ccccc3c2=O)N1c1ccc(C)cc1` (configuration not stated), the TGI in assay [1] was determined as 25.9 µM; in assay [2], 33.8 µM; in assay [3], 21.2 µM; in [4], 24.7 µM; in assay [5], 18.3 µM; in assay [6], 26.6 µM. Also, the TGI in assay [7] came to 20.8 µM; in assay [8] it was 18.2 µM; in assay [9], 49.1 µM; in assay [10] it was 29.5 µM.

With `CCn1c2ccc(C(=O)CCCN3CCCCC3)cc2c2cc(C(=O)CCCN3CCCCC3)ccc21`, the TGI was 4.7 µM in [1]; greater than 22.6 µM in assay [2]; 18.6 µM in [3]; 9.83 µM in assay [4]; 4.74 µM in assay [5]; 22.8 µM in assay [6]. Further, the total growth inhibition concentration (TGI) in assay [7] is 4.47 µM; in [8], 3.9 µM; in assay [9] it was greater than 100 µM; in assay [10], 4.2 µM.

For the molecule `c1ccc2c(c1)Sc1nccc3ccnc-2c13`, the TGI in [1] was greater than 100 µM; in assay [2], greater than 100 µM; in [3], 47.6 µM; in assay [4], greater than 100 µM; in [5] it was greater than 100 µM; in assay [6], greater than 100 µM. The TGI in assay [7] was greater than 100 µM; in [8], greater than 100 µM; in assay [9] it was greater than 100 µM; in assay [10], 65.5 µM.

As for `Cc1cc(C)c2c(=O)cc(-c3cccc(F)c3)[nH]c2n1`, the TGI was greater than 55.1 µM in assay [1]; greater than 32.1 µM in [2]; greater than 100 µM in assay [3]; 4.17 µM in [5]; greater than 100 µM in assay [6]; 22 µM in assay [7]. The TGI in assay [9] came out at 0.226 µM; in assay [10], 1.8 µM.

With `CC(=O)OCC1OC(n2c(-c3ccccc3)c(N=Nc3ccccc3)c(C)c(C#N)c2=S)C(OC(C)=O)C(OC(C)=O)C1OC(C)=O` (configuration not stated), the TGI in [1], in assay [2], in [3], in assay [4], in assay [5] and in [6] was greater than 100 µM throughout. Besides, the TGI in [7], in assay [8], in assay [9] and in [10] was greater than 100 µM each time.

With `Cn1c(=O)c(-c2ccccc2)c(O)c2ccccc21`, the TGI in [1], in assay [2], in [3], in assay [4], in [5] and in assay [6] was greater than 100 µM in each case. Besides, the TGI in [7], in [8], in assay [9] and in assay [10] was greater than 100 µM throughout.

Regarding `CN(C)CCCNC(=O)c1cc(NC(=O)c2cc(NC(=O)CCCn3c4ccccc4c4ccccc43)cn2C)cn1C`, the concentration for total growth inhibition (TGI) in assay [1] is 39.3 µM; in assay [2], 11.6 µM; in assay [3], greater than 58.2 µM; in [4], greater than 100 µM; in assay [5], 20.9 µM; in assay [6] it was greater than 57.7 µM. Moreover, the TGI in assay [7] was greater than 50.9 µM; in assay [8], 42.8 µM; in assay [9] it was greater than 72.4 µM; in [10], greater than 100 µM. Further, the GI50 in assay [5] is 4.45 µM.

As for `CC1C(NNc2ccccc2)Oc2cc3c(cc2C1c1ccccc1O)OCO3` (configuration not stated), the TGI is 24.7 µM in [1]; 4.34 µM in assay [2]; 11 µM in [3]; 13 µM in assay [4]; 28.7 µM in assay [5]; 19.1 µM in assay [6]. Besides, the TGI in assay [7] came to 28.6 µM; in assay [8] it was 28.6 µM; in [9], 15.1 µM; in assay [10], 19.4 µM.

Turning to `Nc1nc(Cl)cc(NCC2(O)CC2)n1`, the TGI in [1], in [2], in assay [3], in assay [4], in [5] and in assay [6] was greater than 100 µM in each case. Also, the TGI in assay [7], in [8], in assay [9] and in [10] was greater than 100 µM throughout.

Take `O=C1C=CC(=O)c2c(O)c(N3CCC[C@H]3CO)c(Cl)c(O)c21`: the TGI in assay [1] was 1.09 µM; in [2] it was 1.87 µM; in assay [3], greater than 5.84 µM; in assay [4], 0.757 µM; in assay [5] it was 6.48 µM; in assay [6], greater than 10 µM. Also, the total growth inhibition concentration (TGI) in [7] is 4.34 µM; in [8], 3.51 µM; in assay [9], 0.249 µM; in [10], greater than 10 µM.

For the molecule `CC1CCC2(NC1)OC1CC3C4CC=C5CC(OC6OC(CO)C(OC7OC(C)C(O)C(O)C7O)C(O)C6OC6OC(C)C(O)C(O)C6O)CCC5(C)C4CCC3(C)C1C2C` (configuration not stated), the TGI in assay [1] was 32.5 µM; in assay [2], 28.7 µM; in [3] it was 21.1 µM; in assay [4], greater than 55.7 µM; in assay [5] it was 8.93 µM; in assay [6], 16.1 µM. In addition, the TGI in [7] was 19.9 µM; in assay [8], 22.3 µM; in [9], greater than 36 µM; in assay [10], 15.6 µM.

For `CN1C(=O)N(C)C(O)C(Cl)(Br)C1=O` (configuration not stated), the TGI in [1], in assay [2], in assay [3], in assay [4], in [5] and in assay [6] was greater than 100 µM in each case. Moreover, the TGI in assay [7], in [8], in [9] and in assay [10] was greater than 100 µM in each case.

Consider `CCOc1ccc(Nc2nc(N)nc(N)c2N)cc1`, for which the TGI in assay [1] was 38.1 µM; in assay [2], 50.1 µM; in assay [3], 74.3 µM; in [4], greater than 100 µM; in assay [5], greater than 100 µM; in assay [6] it was greater than 100 µM. Besides, the TGI was greater than 100 µM in assay [7], greater than 100 µM in [8], greater than 100 µM in assay [9] and 33.3 µM in [10].

Consider `COc1cc(C(=O)Oc2ccc3c(c2)OCO3)cc(OC)c1OC`, for which the TGI in [1], in [3], in assay [5], in [6], in assay [7] and in assay [8] was greater than 100 µM each time. Besides, the TGI in [9] and in [10] was greater than 100 µM in each case.

As to `N#C/C(=C/n1c(=S)[nH]c2ccc([N+](=O)[O-])cc21)C(N)=O`, the TGI in assay [1], in [3], in [4], in assay [5], in assay [6] and in assay [7] was greater than 100 µM in each case. Also, the TGI in [8], in assay [9] and in assay [10] was greater than 100 µM each time.

In the case of `C1=C2C3=[N+](CCCCC3)CC2Cc2ccsc21` (configuration not stated), the total growth inhibition concentration (TGI) in assay [2], in assay [3], in assay [4], in assay [5], in assay [6] and in [7] was greater than 100 µM each time. The TGI in assay [8], in [9] and in assay [10] was greater than 100 µM in each case.

On to `COc1cc2cc(C(=O)N3C[C@H](CCl)c4c3cc(N)c3ccccc43)[nH]c2c(OC)c1OC`, for which the concentration for 50% growth inhibition (GI50) in assay [1], in assay [2], in [4], in assay [5], in assay [6] and in assay [7] was 0.005 µM throughout. In addition, the figures for the GI50 in assay [8], in assay [9] and in assay [10] were 0.005 µM, 0.0171 µM and 0.005 µM, respectively. In addition, the TGI in [1] was greater than 50 µM; in [2], greater than 50 µM; in [4], greater than 50 µM; in [5] it was 0.0254 µM; in assay [6], 0.552 µM; in assay [7] it was 0.0581 µM. The values for the TGI in assay [8], in assay [9] and in [10] were greater than 50 µM, 0.164 µM and 0.615 µM, respectively.

As to `COC(=O)Cc1ccc2c(cnn2-c2ccccc2)c1OC`, the TGI in assay [1], in assay [2], in assay [4], in [5], in [6] and in assay [7] was greater than 10 µM each time. The total growth inhibition concentration (TGI) in assay [8], in [9] and in assay [10] was greater than 10 µM throughout.

For the molecule `Cc1cc(S(=O)(=O)Nc2n[nH]c(-c3ccccn3)n2)c(S)cc1Cl`, the TGI is greater than 100 µM in assay [1]; 10.5 µM in [3]; greater than 100 µM in [5]; 45.4 µM in assay [6]; greater than 100 µM in assay [7]; 54.2 µM in [8]. The TGI worked out at 41.2 µM in assay [9] and 41.7 µM in [10].

Consider `COc1ccc(Nc2nc(N)c(C(=O)c3c[nH]c4ccccc34)s2)cc1`, for which the TGI in assay [3] was greater than 100 µM; in assay [4] it was 6.02 µM; in assay [5], greater than 100 µM; in [6], greater than 80.5 µM; in assay [7], greater than 100 µM; in assay [8], greater than 100 µM. For the same molecule, the TGI was 14 µM in assay [9] and 4.57 µM in assay [10].

In the case of `O=C(O)c1cccc2cccc(-c3cccc4cccc(C(=O)O)c34)c12`, the TGI in assay [2], in [3], in assay [4], in [5], in assay [6] and in [7] was greater than 100 µM in each case. The TGI in assay [8], in assay [9] and in assay [10] was greater than 100 µM in each case.

In the case of `C=C1OC(c2ccccc2NC)=NC12CCCCC2`, the TGI in assay [2], in assay [3], in assay [4], in assay [5], in assay [6] and in assay [7] was greater than 100 µM in each case. Besides, the TGI in assay [8], in assay [9] and in [10] was greater than 100 µM throughout.

Consider `OCCOCn1nncc1Cn1ncc2c(SCc3ccccc3)ncnc21`, for which the TGI in assay [2], in [3], in [5], in assay [6], in assay [7] and in assay [8] was greater than 100 µM each time. The TGI in assay [9] is 53.5 µM; in assay [10] it was greater than 100 µM.

With `Cc1[nH]c(=O)nc(NCCNCCO)c1C(=O)Nc1cccc2cc3ccccc3cc12`, the TGI in [1], in [2], in assay [4], in [5], in assay [6] and in assay [7] was greater than 100 µM in each case. Further, the TGI in [8], in assay [9] and in assay [10] was greater than 100 µM in each case.

Turning to `O=C1N=C2SC(=S)NC(=S)N2NC12c1ccccc1-c1ccccc12`, the TGI in assay [1], in assay [2], in assay [3], in assay [4], in assay [5] and in assay [7] was greater than 10 µM throughout. The TGI in assay [8], in [9] and in assay [10] was greater than 10 µM each time.

The term TGI denotes the concentration giving total growth inhibition. A high value points to lower sensitivity of the cells. The term GI50 denotes the concentration at which growth is held to half of that of the control.

Values taken from PubChem BioAssay (NCI).
